pEC50: −log10 of the molar value. Like-named read-outs stand apart in the source and are kept apart here.
Experiments:
[1] = system: HCV genotype 1b (Con1) replicon in HUH-7 cells; test: HCV replicon luciferase reporter assay, genotype 1b; format: cell-based; settings: Hepatitis C virus, Huh-7, 72 h, 3 days incubation
In short: (§1)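 Replicon inhibition for both genotypes was measured as Renilla luciferase signal (EnduRen, 7.5 μM final, 2 h) after 3-day, 37° C exposure of replicon-bearing HUH-7 cells in 4% FCS DMEM, 0.5% DMSO. The 1b construct carries S1179I; the 1a H77 construct carries P1496L and S2204I. Twenty-point, 3-fold dilutions were fitted four-parametrically for EC50, and CC50 was taken from multiplexed Cell Titer-Blue.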

[2] = system: HCV genotype 1a (H77 strain) replicon in HUH-7 cells; test: HCV replicon luciferase reporter assay, genotype 1a; format: cell-based; settings: Hepatitis C virus, Huh-7, 72 h, 3 days incubation
In short: as §1

[3] = HCV genotype 1b replicon luciferase, read-out: LE_1b (EC50, range)
[4] = HCV genotype 1a replicon luciferase, read-out: LE_1a (EC50, range)
[5] = HCV genotype 1b replicon luciferase assay, range class, read-out: LE_1b (EC50, range)
[6] = HCV genotype 1a replicon luciferase assay, range class, read-out: LE_1a (EC50, range)
[7] = GETYPE1B, HCV genotype 1b replicon luciferase, read-out: LE_1b (EC50, range)
[8] = GETYPE1A, HCV genotype 1a replicon luciferase, read-out: LE_1a (EC50, range)

| Structure (SMILES) | pEC50 [1, 3] | pEC50 [2, 4] | also measured |
| --- | --- | --- | --- |
| CCOc1cc2cc(OC)ccc2c(O[C@@H]2C[C@H]3C(=O)N[C@]4(C(=O)NS(=O)(=O)C5(C)CC5)C[C@H]4/C=C\CC[C@@H](C)C[C@@H](C)[C@H](NC(=O)OC(C)(C)C)C(=O)N3C2)n1 [Compound 3194, tert-butyl ((2R,6S,7R,9R,13aS,14aR,16aS,Z)-2-((3-ethoxy-6-methoxyisoquinolin-1-yl)oxy)-7,9-dimethyl-14a-(((1-methylcyclopropyl)sulfonyl)carbamoyl)-5,16-dioxo-1,2,3,5,6,7,8,9,10,11,13a,14,14a,15,16,16a-hexadecahydrocyclopropa[e]pyrrolo[1,2-a][1,4]diazacyclopentadecin-6-yl)carbamate] | 9.30 to 10.00 | 9.00 to 9.29 | pEC50 ([1]; HCV genotype 1b replicon luciferase, read-out: LE_1b (EC50)): 9.36; pEC50 ([2]; HCV genotype 1a replicon luciferase, read-out: LE_1a (EC50)): 9.21 |
| CC[C@@H]1C[C@H](C)CC/C=C\[C@@H]2C[C@@]2(C(=O)NS(=O)(=O)C2(CF)CC2)NC(=O)[C@@H]2C[C@@H](Oc3ncc(N4CCOCC4)c4ccccc34)CN2C(=O)[C@H]1NC(=O)OC(C)(C)C(F)(F)F [Compound 5445, 1,1,1-trifluoro-2-methylpropan-2-yl((2R,6S,7R,9R,13aS,14aR,16aS,Z)-7-ethyl-14a-(((1-(fluoromethyl)cyclopropyl)sulfonyl)carbamoyl)-9-methyl-2-((4-morpholinoisoquinolin-1-yl)oxy)-5,16-dioxo-1,2,3,5,6,7,8,9,10,11,13a,14,14a,15,16,16a-hexadecahydrocyclopropa[e]pyrrolo[1,2-a][1,4]diazacyclopentadecin-6-yl)carbamate] | 8.30 to 9.00 | 8.30 to 9.00 | – |
| C[C@@H]1CC/C=C\[C@@H]2C[C@@]2(C(=O)NS(=O)(=O)C2(C)CC2)NC(=O)[C@@H]2C[C@@H](Oc3nccc4c5c(ccc34)OCCO5)CN2C(=O)[C@@H](NC(=O)O[C@H](C)C(F)(F)F)[C@H](C)C1 [Compound 5253, (R)-1,1,1-trifluoropropan-2-yl ((2R,6S,7R,9R,13aS,14aR,16aS,Z)-2-((2,3-dihydro-[1,4]dioxino[2,3-f]isoquinolin-7-yl)oxy)-7,9-dimethyl-14a-(((1-methylcyclopropyl)sulfonyl)carbamoyl)-5,16-dioxo-1,2,3,5,6,7,8,9,10,11,13a,14,14a,15,16,16a-hexadecahydrocyclopropa[e]pyrrolo[1,2-a][1,4]diazacyclopentadecin-6-yl)carbamate] | > 8.26 | > 8.26 | – |
| COc1ccc2c(O[C@@H]3C[C@H]4C(=O)N[C@]5(C(=O)NS(=O)(=O)C6(C)CC6)C[C@H]5/C=C\CC[C@@H](C)C[C@@H](C)[C@H](NC(=O)OC(C)(C)C)C(=O)N4C3)nc(OC)cc2c1 [Compound 1131, tert-butyl ((2R,6S,7R,9R,13aS,14aR,16aS,Z)-2-((3,6-dimethoxyisoquinolin-1-yl)oxy)-7,9-dimethyl-14a-(((1-methylcyclopropyl)sulfonyl)carbamoyl)-5,16-dioxo-1,2,3,5,6,7,8,9,10,11,13a,14,14a,15,16,16a-hexadecahydrocyclopropa[e]pyrrolo[1,2-a][1,4]diazacyclopentadecin-6-yl)carbamate] | – | – | pEC50 [1, 5]: > 8.26; pEC50 [2, 6]: > 8.26 |
| CC[C@@H]1C[C@H](C)CC/C=C\[C@@H]2C[C@@]2(C(=O)NS(=O)(=O)C2(C)CC2)NC(=O)[C@@H]2C[C@@H](Oc3nccc4c5c(ccc34)CCCO5)CN2C(=O)[C@H]1NC(=O)OC(C)(C)C(F)(F)F [Compound 6062, 1,1,1-trifluoro-2-methylpropan-2-yl((2R,6S,7R,9R,13aS,14aR,16aS,Z)-2-((3,4-dihydro-2H-pyrano[2,3-f]isoquinolin-7-yl)oxy)-7-ethyl-9-methyl-14a-(((1-methylcyclopropyl)sulfonyl)carbamoyl)-5,16-dioxo-1,2,3,5,6,7,8,9,10,11,13a,14,14a,15,16,16a-hexadecahydrocyclopropa[e]pyrrolo[1,2-a][1,4]diazacyclopentadecin-6-yl)carbamate] | 9.00 to 9.29 | 8.30 to 9.00 | – |
| CC[C@@H]1C[C@H](C)CC/C=C\[C@@H]2C[C@@]2(C(=O)NS(=O)(=O)C2CC2)NC(=O)[C@@H]2C[C@@H](Oc3nc4cc(OC(C)C)ccc4nc3C(F)(F)F)CN2C(=O)[C@H]1NC(=O)OC(C)(C)C [Compound 4337, tert-butyl ((2R,6S,7R,9R,13aS,14aR,16aS,Z)-14a-((cyclopropylsulfonyl)carbamoyl)-7-ethyl-2-((7-isopropoxy-3-(trifluoromethyl)quinoxalin-2-yl)oxy)-9-methyl-5,16-dioxo-1,2,3,5,6,7,8,9,10,11,13a,14,14a,15,16,16a-hexadecahydrocyclopropa[e]pyrrolo[1,2-a][1,4]diazacyclopentadecin-6-yl)carbamate] | 9.00 to 9.29 | 9.00 to 9.29 | – |
| CCn1nc(O[C@@H]2C[C@H]3C(=O)N[C@]4(C(=O)NS(=O)(=O)C5(C)CC5)C[C@H]4/C=C\CC[C@H](C)C[C@@H](C)[C@H](NC(=O)NC(C)(C)C)C(=O)N3C2)c2ccccc2c1=O [Compound 5058, (2R,6S,7R,9S,13aS,14aR,16aS,Z)-6-(3-(tert-butyl)ureido)-2-((3-ethyl-4-oxo-3,4-dihydrophthalazin-1-yl)oxy)-7,9-dimethyl-N-((1-methylcyclopropyl)sulfonyl)-5,16-dioxo-1,2,3,5,6,7,8,9,10,11,13a,14,14a,15,16,16a-hexadecahydrocyclopropa[e]pyrrolo[1,2-a][1,4]diazacyclopentadecine-14a-carboxamide] | < 7.06 | < 7.06 | – |
| CCOc1ccc2c(O[C@@H]3C[C@H]4C(=O)N[C@]5(C(=O)NS(=O)(=O)C6(C)CC6)C[C@H]5/C=C\CC[C@@H](C)C[C@@H](C)[C@H](NC(=O)OCC5(C)CC5)C(=O)N4C3)nccc2c1 [Compound 5140, (1-methylcyclopropyl)methyl ((2R,6S,7R,9R,13aS,14aR,16aS,Z)-2-((6-ethoxyisoquinolin-1-yl)oxy)-7,9-dimethyl-14a-(((1-methylcyclopropyl)sulfonyl)carbamoyl)-5,16-dioxo-1,2,3,5,6,7,8,9,10,11,13a,14,14a,15,16,16a-hexadecahydrocyclopropa[e]pyrrolo[1,2-a][1,4]diazacyclopentadecin-6-yl)carbamate] | > 8.26 | > 8.26 | – |
| COc1ccc2c(O[C@@H]3C[C@H]4C(=O)N[C@]5(C(=O)NS(=O)(=O)C6CC6)C[C@H]5/C=C\CC[C@H](C)C[C@@H](C)[C@H](NC(=O)OC5C[C@@H]6C[C@@H]6C5)C(=O)N4C3)nc(-c3ccc(N4CCOCC4)cc3)cc2c1 (stereo partly drawn) [Compound 5194, (1R,3r,5S)-bicyclo[3.1.0]hexan-3-yl((2R,6S,7R,9S,13aS,14aR,16aS,Z)-14a-((cyclopropylsulfonyl)carbamoyl)-2-((6-methoxy-3-(4-morpholinophenyl)isoquinolin-1-yl)oxy)-7,9-dimethyl-5,16-dioxo-1,2,3,5,6,7,8,9,10,11,13a,14,14a,15,16,16a-hexadecahydrocyclopropa[e]pyrrolo[1,2-a][1,4]diazacyclopentadecin-6-yl)carbamate] | > 8.26 | > 8.26 | – |
| COc1ccc2c(O[C@@H]3C[C@H]4C(=O)N[C@]5(C(=O)NS(=O)(=O)C6CC6)C[C@H]5/C=C\CC[C@@H](C)C[C@@H](C)[C@H](NC(=O)OC(C)(C)C)C(=O)N4C3)nc(-c3ccc(OC)c(Cl)c3)cc2c1 [Compound 3048, tert-butyl ((2R,6S,7R,9R,13aS,14aR,16aS,Z)-2-((3-(3-chloro-4-methoxyphenyl)-6-methoxyisoquinolin-1-yl)oxy)-14a-((cyclopropylsulfonyl)carbamoyl)-7,9-dimethyl-5,16-dioxo-1,2,3,5,6,7,8,9,10,11,13a,14,14a,15,16,16a-hexadecahydrocyclopropa[e]pyrrolo[1,2-a][1,4]diazacyclopentadecin-6-yl)carbamate] | – | – | pEC50 [1, 5]: > 8.26; pEC50 [2, 6]: > 8.26 |
| COc1ccc2c(O[C@@H]3C[C@H]4C(=O)N[C@]5(C(=O)NS(=O)(=O)C6(C)CC6)C[C@H]5/C=C\CC[C@@H](C)C[C@@H](C)[C@H](NC(=O)OC(C)(C)C(F)(F)F)C(=O)N4C3)cnnc2c1 [Compound 4322] | – | – | pEC50 [1, 7]: 7.46 to 8.30; pEC50 [2, 8]: 7.46 to 8.30 |
| CC[C@@H]1C[C@H](C)CC/C=C\[C@@H]2C[C@@]2(C(=O)NS(=O)(=O)C2(C)CC2)NC(=O)[C@@H]2C[C@@H](Oc3ncc(N4CCN(S(C)(=O)=O)CC4)c4cc(OC)ccc34)CN2C(=O)[C@H]1NC(=O)OC(C)(C)C(F)(F)F [Compound 4254] | – | – | pEC50 [1, 7]: 9.00 to 9.29; pEC50 [2, 8]: 8.30 to 9.00 |
| COc1cnc(O[C@@H]2C[C@H]3C(=O)N[C@]4(C(=O)NS(=O)(=O)C5(CF)CC5)C[C@H]4/C=C\CC[C@H](C)C[C@@H](C)[C@H](NC(=O)OC4(C)CCOCC4)C(=O)N3C2)c2ccccc12 [Compound 1051, 4-methyltetrahydro-2H-pyran-4-yl((2R,6S,7R,9S,13aS,14aR,16aS,Z)-14a-(((1-(fluoromethyl)cyclopropyl)sulfonyl)carbamoyl)-2-((4-methoxyisoquinolin-1-yl)oxy)-7,9-dimethyl-5,16-dioxo-1,2,3,5,6,7,8,9,10,11,13a,14,14a,15,16,16a-hexadecahydrocyclopropa[e]pyrrolo[1,2-a][1,4]diazacyclopentadecin-6-yl)carbamate] | – | – | pEC50 [1, 5]: 6.99 to 8.32; pEC50 [2, 6]: 6.99 to 8.32 |
| COc1cnc(O[C@@H]2C[C@H]3C(=O)N[C@]4(C(=O)NS(=O)(=O)C5(CF)CC5)C[C@H]4/C=C\CC[C@@H](C)C[C@@H](C)[C@H](NC(=O)OC(C)(C)C(F)(F)F)C(=O)N3C2)c2cc(F)ccc12 [Compound 4083] | – | – | pEC50 [1, 7]: > 8.26; pEC50 [2, 8]: > 8.26 |

— patent US9499550B2 (BRISTOL-MYERS SQUIBB COMPANY, priority 2012, dated 2016)
